Measured values as given in the supplement of paper PMC11061612.

Key:
Experiment in all cases: Bliss excess, mean over the matrix (fraction); higher = more synergy
IM-9 (Non-Cancerous) = tested on: IM-9 (Non-Cancerous)
In short: (§1)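 Cell lines in DMEM/F12 or RPMI with 10% FBS were plated in 1536-well plates, held 24 hours at 37°C, 5% CO2, then given two-drug dose matrices for 72 hours (DMSO typically 0.2%). Viability was read by CellTiter-Glo 2.0 luminescence and scaled as inhibition from 0 (vehicle wells) to 1 (blank wells). Combination Emax is the second-highest inhibition in the matrix; Bliss excess is observed combination effect minus expected EA + EB − EA·EB, EA and EB being single-agent effects.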

[1] = tested on: ESO26 (Esophageal Adenocarcinoma)
In short: as §1

[2] = tested on: EPLC-272H (Other Solid Carcinomas)
In short: as §1

[3] = tested on: DMS-53 (Small Cell Lung Carcinoma)
In short: as §1

[4] = tested on: SK-HEP-1 (Hepatocellular Carcinoma)
In short: as §1

EW-7 (Ewing's Sarcoma) = tested on: EW-7 (Ewing's Sarcoma)
In short: as §1

[5] = tested on: OACp4C (Esophageal Adenocarcinoma)
In short: as §1

[6] = tested on: Jurkat (T-Lymphoblastic Leukemia)
In short: as §1

RH-41 (Rhabdomyosarcoma) = tested on: RH-41 (Rhabdomyosarcoma)
In short: as §1

[7] = tested on: NCI-H1703 (Squamous Cell Lung Carcinoma)
In short: as §1

HCC70 (Breast Carcinoma) = tested on: HCC70 (Breast Carcinoma)
In short: as §1

COLO-792 (Melanoma) = tested on: COLO-792 (Melanoma)
In short: as §1

KP-N-YN (Neuroblastoma) = tested on: KP-N-YN (Neuroblastoma)
In short: as §1

[8] = tested on: NCI-H441 (Lung Adenocarcinoma)
In short: as §1

[9] = tested on: JHU-022 (Oral Cavity Carcinoma)
In short: as §1

[10] = tested on: NCI-H1651 (Lung Adenocarcinoma)
In short: as §1

[11] = tested on: LS-411N (Colorectal Carcinoma)
In short: as §1

NB13 (Neuroblastoma) = tested on: NB13 (Neuroblastoma)
In short: as §1

[12] = tested on: JHH-2 (Hepatocellular Carcinoma)
In short: as §1

PEO1 (Ovarian Carcinoma) = tested on: PEO1 (Ovarian Carcinoma)
In short: as §1

Row | Compound | Bliss excess (IM-9 (Non-Cancerous)) | Bliss excess [1] | Bliss excess [2] | Bliss excess [3] | Bliss excess [4] | Bliss excess (EW-7 (Ewing's Sarcoma)) | Bliss excess [5] | Bliss excess [6] | Bliss excess (RH-41 (Rhabdomyosarcoma)) | Bliss excess [7] | Bliss excess (HCC70 (Breast Carcinoma)) | Bliss excess (COLO-792 (Melanoma)) | Bliss excess (KP-N-YN (Neuroblastoma)) | Bliss excess [8] | Bliss excess [9] | Bliss excess [10] | Bliss excess [11] | Bliss excess (NB13 (Neuroblastoma)) | Bliss excess [12] | Bliss excess (PEO1 (Ovarian Carcinoma))
1 | COc1nnc2ccc(N3CCC(c4ccc(OCCN5CCN(C)C(=O)[C@H]5C)cc4)CC3)nn12 [AZD5153] + CCN(CCO)CCCOc1ccc2c(Nc3cc(CC(=O)Nc4cccc(F)c4)[nH]n3)ncnc2c1 [AZD2811] (first compound max 1 µM, 7x7, partner max 1 µM) | -0.111 | 0.0002 | -0.0387 | 0.0175 | -0.103 | 0.0274 | -0.062 | 0.0305 | 0.021 | -0.038 | -0.0734 | -0.0406 | -0.0355 | -0.0236 | -0.0601 | 0.004 | -0.0233 | -0.0336 | -0.0496 | -0.0137
2 | CC1(C)CCC(CN2CCN(c3ccc(C(=O)NS(=O)(=O)c4ccc(NCC5CCOCC5)c([N+](=O)[O-])c4)c(Oc4cnc5[nH]ccc5c4)c3)CC2)=C(c2ccc(Cl)cc2)C1 [Venetoclax] + CN(C)CCCOc1ccc(-c2ccc3ncc4c(c3c2)n(C2CCOCC2)c(=O)n4C)cn1 [AZD0156] (first compound max 1 µM, 7x7, partner max 1 µM) | 0.0254 | -0.0063 | -0.0501 | 0.0619 | -0.057 | -0.007 | -0.0468 | -0.0111 | 0.0618 | 0.013 | -0.0057 | 0.0153 | -0.0016 | -0.0733 | -0.0382 | -0.0174 | -0.0214 | 0.021 | -0.028 | -0.018
3 | Cc1c2c(nn1C)CSCc1cc(n(C)n1)CSc1cc(c3ccccc3c1)OCCCc1c(C(=O)O)n(C)c3c-2c(Cl)ccc13 [AZD5991] + C=CCn1c(=O)c2cnc(Nc3ccc(N4CCN(C)CC4)cc3)nc2n1-c1cccc(C(C)(C)O)n1 [AZD1775] (first compound max 1 µM, partner max 1 µM) | -0.054 | 0.0072 | 0.0188 | 0.0326 | -0.0366 | 0.0015 | 0.0186 | -0.0066 | 0.0029 | -0.0214 | 0.0278 | 0.0348 | -0.0247 | 0.0171 | -0.0072 | -0.11 | 0.0376 | -0.0346 | -0.063 | 0.0146
4 | C[C@@H]1COCCN1c1cc(C2([S@](C)(=N)=O)CC2)nc(-c2ccnc3[nH]ccc23)n1 [AZD6738] + O=C(c1cc(Cc2n[nH]c(=O)c3ccccc23)ccc1F)N1CCN(C(=O)C2CC2)CC1 [Olaparib] (first compound max 10 µM, 7x7, partner max 10 µM) | -0.0255 | -0.0081 | -0.0682 | -0.002 | 0.0248 | -0.0896 | -0.0281 | 0.0592 | -0.0201 | -0.041 | 0.0085 | 0.0322 | -0.203 | 0.0124 | -0.0489 | 0.0418 | -0.105 | 0.0511 | -0.0152 | 0.0069
5 | Cn1cnc2c(F)c(Nc3ccc(Br)cc3Cl)c(C(=O)NOCCO)cc21 [Selumetinib] + CCN(CCO)CCCOc1ccc2c(Nc3cc(CC(=O)Nc4cccc(F)c4)[nH]n3)ncnc2c1 [AZD2811] (first compound max 10 µM, 7x7, partner max 1 µM) | -0.032 | -0.0374 | 0.0426 | -0.0629 | -0.0421 | -0.0023 | 0.0193 | -0.0216 | 0.0363 | -0.0167 | 0.0138 | -0.0532 | 0.0253 | -0.0565 | 0.0079 | -0.0283 | -0.0115 | -0.0829 | -0.0193 | -0.0252
6 | COc1nnc2ccc(N3CCC(c4ccc(OCCN5CCN(C)C(=O)[C@H]5C)cc4)CC3)nn12 [AZD5153] + Cc1c2c(nn1C)CSCc1cc(n(C)n1)CSc1cc(c3ccccc3c1)OCCCc1c(C(=O)O)n(C)c3c-2c(Cl)ccc13 [AZD5991] (first compound max 1 µM, 7x7, partner max 1 µM) | -0.127 | -0.0071 | -0.026 | 0.007 | -0.085 | 0.07 | 0.0438 | 0.0006 | 0.012 | -0.0186 | 0.0638 | 0.0196 | -0.0362 | -0.0179 | -0.0703 | -0.0273 | 0.0068 | 0.0066 | -0.119 | -0.0209
7 | CC1(C)CCC(CN2CCN(c3ccc(C(=O)NS(=O)(=O)c4ccc(NCC5CCOCC5)c([N+](=O)[O-])c4)c(Oc4cnc5[nH]ccc5c4)c3)CC2)=C(c2ccc(Cl)cc2)C1 [Venetoclax] + CCN(CCO)CCCOc1ccc2c(Nc3cc(CC(=O)Nc4cccc(F)c4)[nH]n3)ncnc2c1 [AZD2811] (first compound max 1 µM, 7x7, partner max 1 µM) | 0.0275 | -0.0262 | 0.0409 | 0.069 | -0.0621 | -0.0227 | -0.0234 | 0.0202 | 0.0561 | 0.0412 | -0.0223 | -0.0048 | 0.104 | -0.044 | -0.0139 | 0.0011 | -0.0284 | 0.0534 | -0.038 | -0.0314
